{"source": "PubChem BioAssay AID1259407", "about": "(Chemical Carcinogenesis Research Information System (CCRIS), 2018)", "system": "CCRIS mutagenicity, Ames/micronucleus/aberration tests", "test": "CCRIS mutagenicity studies", "note": "Activity calls are given as the source filed them. How the calls were made is not given here."}
{"smiles": "CS(C)=O", "values": [{"measurement": "mutagenic call", "setting": "Test System: AMES SALMONELLA TYPHIMURIUM, Strain/Indicator: TA1535, Metabolic Activation: RAT, LIVER, S-9, AROCLOR 1254 (10 OR 30%), Method: PREINCUBATION", "result": "inactive; negative"}, {"measurement": "mutagenic call", "setting": "Test System: AMES SALMONELLA TYPHIMURIUM, Strain/Indicator: TA1535, Metabolic Activation: RAT, LIVER, S-9, PHENOBARBITAL AND 5,6-BENZOFLAVONE, Method: PREINCUBATION (20 MIN)", "result": "inactive; negative"}, {"measurement": "mutagenic call", "setting": "Test System: AMES SALMONELLA TYPHIMURIUM, Strain/Indicator: TA1537, Metabolic Activation: HAMSTER, LIVER, S-9, AROCLOR 1254 (30%), Method: PREINCUBATION", "result": "inactive; negative"}, {"measurement": "mutagenic call", "setting": "Test System: AMES SALMONELLA TYPHIMURIUM, Strain/Indicator: TA1537, Metabolic Activation: NONE, Method: FLUCTUATION (MICROTITER)", "result": "inactive; negative"}, {"measurement": "mutagenic call", "setting": "Test System: AMES SALMONELLA TYPHIMURIUM, Strain/Indicator: TA1537, Metabolic Activation: NONE, Method: PREINCUBATION", "result": "inactive; negative"}, {"measurement": "mutagenic call", "setting": "Test System: AMES SALMONELLA TYPHIMURIUM, Strain/Indicator: TA1537, Metabolic Activation: NONE, Method: PREINCUBATION (20 MIN)", "result": "active; positive"}, {"measurement": "mutagenic call", "setting": "Test System: AMES SALMONELLA TYPHIMURIUM, Strain/Indicator: TA1537, Metabolic Activation: NONE, Method: PREINCUBATION (20 OR 60 MIN)", "result": "active; positive"}, {"measurement": "mutagenic call", "setting": "Test System: AMES SALMONELLA TYPHIMURIUM, Strain/Indicator: TA1537, Metabolic Activation: NONE, Method: STANDARD PLATE", "result": "inactive; negative"}, {"measurement": "mutagenic call", "setting": "Test System: AMES SALMONELLA TYPHIMURIUM, Strain/Indicator: TA1537, Metabolic Activation: RAT LIVER S-9, AROCLOR 1254, Method: FLUCTUATION (MICROTITER)", "result": "inactive; negative"}, {"measurement": "mutagenic call", "setting": "Test System: AMES SALMONELLA TYPHIMURIUM, Strain/Indicator: TA1537, Metabolic Activation: RAT, LIVER, S-9, AROCLOR 1254 (30%), Method: PREINCUBATION", "result": "inactive; negative"}, {"measurement": "mutagenic call", "setting": "Test System: AMES SALMONELLA TYPHIMURIUM, Strain/Indicator: TA1537, Metabolic Activation: RAT, LIVER, S-9, PHENOBARBITAL AND 5,6-BENZOFLAVONE, Method: PREINCUBATION (20 MIN)", "result": "active; positive"}, {"measurement": "mutagenic call", "setting": "Test System: AMES SALMONELLA TYPHIMURIUM, Strain/Indicator: TA1538, Metabolic Activation: NONE, Method: PREINCUBATION (20 MIN)", "result": "inactive; negative"}, {"measurement": "mutagenic call", "setting": "Test System: AMES SALMONELLA TYPHIMURIUM, Strain/Indicator: TA1538, Metabolic Activation: RAT, LIVER, S-9, PHENOBARBITAL AND 5,6-BENZOFLAVONE, Method: PREINCUBATION (20 MIN)", "result": "inactive; negative"}, {"measurement": "mutagenic call", "setting": "Test System: AMES SALMONELLA TYPHIMURIUM, Strain/Indicator: TA2637, Metabolic Activation: NONE, Method: PREINCUBATION (20 MIN)", "result": "active; positive"}, {"measurement": "mutagenic call", "setting": "Test System: AMES SALMONELLA TYPHIMURIUM, Strain/Indicator: TA2637, Metabolic Activation: RAT, LIVER, S-9, PHENOBARBITAL AND 5,6-BENZOFLAVONE, Method: PREINCUBATION (20 MIN)", "result": "active; positive"}, {"measurement": "mutagenic call", "setting": "Test System: AMES SALMONELLA TYPHIMURIUM, Strain/Indicator: TA7001, Metabolic Activation: NONE, Method: FLUCTUATION (MICROTITER)", "result": "inactive; negative"}, {"measurement": "mutagenic call", "setting": "Test System: AMES SALMONELLA TYPHIMURIUM, Strain/Indicator: TA7001, Metabolic Activation: RAT LIVER S-9, AROCLOR 1254, Method: FLUCTUATION (MICROTITER)", "result": "inactive; negative"}, {"measurement": "mutagenic call", "setting": "Test System: AMES SALMONELLA TYPHIMURIUM, Strain/Indicator: TA7002, Metabolic Activation: NONE, Method: FLUCTUATION (MICROTITER)", "result": "inactive; negative"}, {"measurement": "mutagenic call", "setting": "Test System: AMES SALMONELLA TYPHIMURIUM, Strain/Indicator: TA7002, Metabolic Activation: RAT LIVER S-9, AROCLOR 1254, Method: FLUCTUATION (MICROTITER)", "result": "inactive; negative"}, {"measurement": "mutagenic call", "setting": "Test System: AMES SALMONELLA TYPHIMURIUM, Strain/Indicator: TA7003, Metabolic Activation: NONE, Method: FLUCTUATION (MICROTITER)", "result": "inactive; negative"}, {"measurement": "mutagenic call", "setting": "Test System: AMES SALMONELLA TYPHIMURIUM, Strain/Indicator: TA7003, Metabolic Activation: RAT LIVER S-9, AROCLOR 1254, Method: FLUCTUATION (MICROTITER)", "result": "inactive; negative"}, {"measurement": "mutagenic call", "setting": "Test System: AMES SALMONELLA TYPHIMURIUM, Strain/Indicator: TA7004, Metabolic Activation: NONE, Method: FLUCTUATION (MICROTITER)", "result": "inactive; negative"}, {"measurement": "mutagenic call", "setting": "Test System: AMES SALMONELLA TYPHIMURIUM, Strain/Indicator: TA7004, Metabolic Activation: RAT LIVER S-9, AROCLOR 1254, Method: FLUCTUATION (MICROTITER)", "result": "inactive; negative"}, {"measurement": "mutagenic call", "setting": "Test System: AMES SALMONELLA TYPHIMURIUM, Strain/Indicator: TA7005, Metabolic Activation: NONE, Method: FLUCTUATION (MICROTITER)", "result": "inactive; negative"}, {"measurement": "mutagenic call", "setting": "Test System: AMES SALMONELLA TYPHIMURIUM, Strain/Indicator: TA7005, Metabolic Activation: RAT LIVER S-9, AROCLOR 1254, Method: FLUCTUATION (MICROTITER)", "result": "inactive; negative"}, {"measurement": "mutagenic call", "setting": "Test System: AMES SALMONELLA TYPHIMURIUM, Strain/Indicator: TA7006, Metabolic Activation: NONE, Method: FLUCTUATION (MICROTITER)", "result": "inactive; negative"}, {"measurement": "mutagenic call", "setting": "Test System: AMES SALMONELLA TYPHIMURIUM, Strain/Indicator: TA7006, Metabolic Activation: RAT LIVER S-9, AROCLOR 1254, Method: FLUCTUATION (MICROTITER)", "result": "inactive; negative"}, {"measurement": "mutagenic call", "setting": "Test System: E. COLI, Strain/Indicator: WP2, Metabolic Activation: NONE, Method: PREINCUBATION (20 OR 60 MIN)", "result": "inactive; negative"}, {"measurement": "mutagenic call", "setting": "Test System: E. COLI, Strain/Indicator: WP2, Metabolic Activation: NONE, Method: STANDARD PLATE", "result": "inactive; negative"}, {"measurement": "mutagenic call", "setting": "Test System: E. COLI, Strain/Indicator: WP2 UVRA, Metabolic Activation: NONE, Method: PREINCUBATION (20 MIN)", "result": "active; positive"}, {"measurement": "mutagenic call", "setting": "Test System: E. COLI, Strain/Indicator: WP2 UVRA, Metabolic Activation: NONE, Method: PREINCUBATION (60 MIN)", "result": "inactive; negative"}, {"measurement": "mutagenic call", "setting": "Test System: E. COLI, Strain/Indicator: WP2 UVRA, Metabolic Activation: NONE, Method: STANDARD PLATE", "result": "active; positive"}, {"measurement": "mutagenic call", "setting": "Test System: MOUSE LYMPHOMA, Strain/Indicator: L5178Y (TK+/TK-), Metabolic Activation: NONE, Method: SUSPENSION/PLATE", "result": "active; positive"}]}
